Assay [1] deals with T1, PDGF-receptor beta enzyme comprising the tyrosine kinase domain (Homo sapiens, UniProt P09619).
T1 construct: from amino acid 545 to 1106 of GenBank Access NO: AAA36427
The experiment in a line: Inhibition of PDGF-receptor kinase activity (cell-free, PLC1 peptide, 33P Flashplate). Type of assay: biochemical. To be noted: PDGF-R kinase activity; for inhibition at 10 µM: compound at 10 uM, read-out: Percent Inhibition @ 10 uM; for IC50: read-out: IC50. In a few lines: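 The IC50 is the inhibitor level halving kinase activity relative to inhibitor-free wells, measured as 33P captured on a streptavidin-bound biotin-PLC1 peptide. The reaction ran 60 min at 30 °C in pH 8 Tris buffer with 1 mM DTT, 5 μM ATP and the 545–1106 kinase-domain enzyme.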

The subject of the next assay is T47D (breast). The experiment in a line: Anti-cell proliferation in tumor cells (14C-thymidine incorporation), T47D. Type of assay: cell-based. To be noted: Homo sapiens, read-out: IC50 on cell proliferation, T47D. Here is the method: (§1) The effect of compounds of the invention on cell proliferation in various tumor cells was tested based on incorporation of ^14C-thymidine into DNA of cells.
(§2) Similar to those described above in 3a, except that different cells, cell growth medium, and growth supplements were used. Human tumor cell lines derived from various human tissue origins (LoVo from colon, H460 from lung, T47D from breast, PC3 from prostate, A375 from melanoma, AsPC1 from pancreas) were obtained from the American Type Culture Collection (ATCC) and cultured under specified conditions required for each cell type, as provided by ATCC. Complete medium was obtained from Cellgro: Iscove's medium with 10% Fetal Bovine Serium (FBS) (Mediatech, Inc., Herndon, Va. 20171, Cat. No. 10-016-CV).
(§3) Tumor cells were seeded at approx. 3000–8000 cells per well in a volume of 100 μl of complete medium. Cells were grown for 24 hours in complete medium, and 1 μl of test compound was serially diluted in 100% DMSO and added to each well. For maximum growth control wells, only 1 μl of 100% DMSO was added. After 24 hours incubation, 20 μl of ^14C-thymidine master mix was added to each well and the ^14C-thymidine master mix was pepared according to the following regimen:
(§4) Cells were incubated for an additional 24 hours at 37° C. in medium containing test compound and ^14C-thymidine. Then, the reaction mixture was discarded and the plate was washed 2 times each with 200 μl PBS. Subsequently, each well on the plate was filled with 200 μl of PBS. The top of the plate was sealed with transparent plate sealer and white plate backing sealers were applied to the bottom of plates. The retained ^14C inside each well was measured using a Packard TopCount.
(§5) In order to test the potency of inhibition of the present compound, IC50 of an individual compound on the inhibition of tumor cell line proliferation was measured using the above procedure. As used herein, said IC50 refers to the concentration of the test compound at which the amount of tumor cell proliferation is reduced by one-half as compared to the maximum growth control wells without the compound.
(Uptake of a labelled nucleoside into DNA is a usual measure of proliferation.)

A further assay concerns PC3 (prostate). Briefly: Anti-cell proliferation in tumor cells (14C-thymidine incorporation), PC3. Type of assay: cell-based. Here is the method: as §1, §2, §3, §4, §5
A further assay has as its system A375 (melanoma). The experiment in a line: Anti-cell proliferation in tumor cells (14C-thymidine incorporation), A375. It is filed as cell-based. Here is the method:
as §1, §2, §3, §4, §5

In another assay the test system is AsPC1 (pancreas). Briefly: Anti-cell proliferation in tumor cells (14C-thymidine incorporation), AsPC1. Type of assay: cell-based. The procedure: as §1, §2, §3, §4, §5
Where [2] appears, read: Homo sapiens, PC-3; read-out: IC50 on cell proliferation, PC3.
The mark [3] stands for this setting: Homo sapiens, A-375; read-out: IC50 on cell proliferation, A375.
[4] abbreviates: Homo sapiens, ASPC1; read-out: IC50 on cell proliferation, AsPC1.

Like-named read-outs stand apart in the source and are kept apart here. Where only a bound is given, the exact number is not on record here.

Experimental findings from patent publication US7196110B2, “N-substituted tricyclic 3-aminopyrazoles as inhibitors for the treatment of cell proliferative disorders” (Janssen Phamaceutica N.V., priority 2002, dated 2007) are described below.

T1 sequence (P09619 545-1106): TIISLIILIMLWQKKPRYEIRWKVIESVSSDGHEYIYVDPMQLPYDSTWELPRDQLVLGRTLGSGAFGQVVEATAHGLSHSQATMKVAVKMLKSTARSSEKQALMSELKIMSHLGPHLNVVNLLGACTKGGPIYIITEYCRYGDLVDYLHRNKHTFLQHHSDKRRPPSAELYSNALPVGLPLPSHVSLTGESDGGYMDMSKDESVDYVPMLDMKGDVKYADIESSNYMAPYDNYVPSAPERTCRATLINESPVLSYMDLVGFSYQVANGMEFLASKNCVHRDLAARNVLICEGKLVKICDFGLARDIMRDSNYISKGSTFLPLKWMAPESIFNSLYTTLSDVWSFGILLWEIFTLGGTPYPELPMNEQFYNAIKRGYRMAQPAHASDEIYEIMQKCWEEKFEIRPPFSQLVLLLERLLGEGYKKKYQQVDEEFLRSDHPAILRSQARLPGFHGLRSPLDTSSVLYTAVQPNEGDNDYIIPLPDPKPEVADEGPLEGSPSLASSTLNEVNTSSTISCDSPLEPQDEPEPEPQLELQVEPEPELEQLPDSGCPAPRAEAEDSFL

The inhibition is the relative decrease from the control value, in per cent. `COC(=O)c1cccc(Nc2[nH]nc3c2Cc2cc(OC)c(OC)cc2-3)c1` [Compound 11, 3-(6,7-Dimethoxy-2,4-dihydro-indeno[1,2-c]pyrazol-3-ylamino)-benzoic acid methyl ester]: in assay [1], the inhibition at 10 µM was found to be 97%. The IC50 came out at 15.7 nM in assay [1]; 7 nM with T47D (breast); 14 nM in the assay on PC3 (prostate) (setting [2]); 5 nM in the assay with A375 (melanoma) (setting [3]); 30 nM in the assay on AsPC1 (pancreas) (setting [4]).

For the compound `COc1cc2c(cc1OC)-c1n[nH]c(Nc3ccccc3F)c1C2` [Compound 12, (6,7-Dimethoxy-2,4-dihydro-indeno[1,2-c]pyrazol-3-yl)-(2-fluoro-phenyl)-amine], in assay [1], the inhibition at 10 µM came out at 76%. In addition, the IC50 in assay [1] stood at 56 nM; in the assay on T47D (breast), 31 nM; in the assay on PC3 (prostate) (setting [2]), 13 nM; with A375 (melanoma) (setting [3]), 11 nM; in the assay on AsPC1 (pancreas) (setting [4]) it was 77 nM.

For `COc1cc2c(cc1OC)-c1n[nH]c(Nc3cccc(F)c3)c1C2` [Compound 14, (3-Fluoro-phenyl)-(6,7-dimethoxy-2,4-dihydro-indeno[1,2-c]pyrazol-3-yl)-amine], the inhibition at 10 µM in assay [1] came out at 108%. Besides, the IC50 in assay [1] came out at 1.7 nM; in the assay on T47D (breast) it was 32 nM; in the assay on PC3 (prostate) (Homo sapiens, PC-3, read-out: IC50 on cell proliferation, PC3), 20 nM; in the assay with A375 (melanoma) (Homo sapiens, A-375, read-out: IC50 on cell proliferation, A375), 7 nM; in the assay on AsPC1 (pancreas) (Homo sapiens, ASPC1, read-out: IC50 on cell proliferation, AsPC1), 592 nM.

`Cc1ccc2c(c1)-c1n[nH]c(Nc3ccccc3)c1C2` [Compound 22, (7-Methyl-2,4-dihydro-indeno[1,2-c]pyrazol-3-yl)-phenyl-amine]: the inhibition at 10 µM in assay [1] was determined as 96%. The IC50 was 45 nM in assay [1]; 381 nM in the assay on T47D (breast); 49500 nM with PC3 (prostate) (setting [2]); 11600 nM with A375 (melanoma) (setting [3]); greater than 10000 nM in the assay on AsPC1 (pancreas) (setting [4]).

With `COc1cc2c(cc1OC)-c1n[nH]c(Nc3cccnc3)c1C2` [Compound 30, (6,7-Dimethoxy-2,4-dihydro-indeno[1,2-c]pyrazol-3-yl)-pyridin-3-yl-amine], in assay [1], the inhibition at 10 µM worked out at 107%. In addition, the IC50 in assay [1] was 16 nM; with T47D (breast), 8200 nM; with PC3 (prostate) (setting [2]), 175 nM; in the assay with A375 (melanoma) (setting [3]) it was 507 nM; with AsPC1 (pancreas) (setting [4]) it was greater than 10000 nM.

Regarding `COc1ccc2c(c1)-c1n[nH]c(Nc3ccccc3)c1C2` [Compound 39, (7-Methoxy-2,4-dihydro-indeno[1,2-c]pyrazol-3-yl)-phenyl-amine], the inhibition at 10 µM in assay [1] was found to be 92%. The IC50 with T47D (breast) is greater than 10000 nM; with PC3 (prostate) (setting [2]) it was greater than 10000 nM; with A375 (melanoma) (setting [3]), greater than 50000 nM; in the assay with AsPC1 (pancreas) (setting [4]), greater than 10000 nM.

`COc1cc2c(cc1OC)-c1n[nH]c(NCc3ccccc3)c1C2` [Compound 63, Benzyl-(6,7-dimethoxy-2,4-dihydro-indeno[1,2-c]pyrazol-3-yl)-amine]: the inhibition at 10 µM in assay [1] turned out to be 94%. In addition, the IC50 in assay [1] was found to be 191 nM; with T47D (breast), 2600 nM; in the assay on PC3 (prostate) (setting [2]), 6120 nM; in the assay with A375 (melanoma) (setting [3]) it was 2840 nM; in the assay with AsPC1 (pancreas) (setting [4]), 10300 nM.

In the case of `COc1cccc(Nc2[nH]nc3c2Cc2cc4c(cc2-3)OCO4)c1` [Compound 97, (2,9-Dihydro-5,7-dioxa-2,3-diaza-cyclopenta[a]-s-indacen-1-yl)-(3-methoxy-phenyl)-amine], the inhibition at 10 µM in assay [1] stood at 91%. In addition, the IC50 in assay [1] came to 54 nM; with T47D (breast), 622 nM; in the assay on PC3 (prostate) (setting [2]), 1680 nM; in the assay with A375 (melanoma) (setting [3]) it was 362 nM; with AsPC1 (pancreas) (setting [4]), 5670 nM.

With `CN1CCN(c2ccc3c(c2)Cc2c-3n[nH]c2Nc2cccc(Br)c2)CC1` [Compound 122, (3-Bromo-phenyl)-[6-(4-methyl-piperazin-1-yl)-2,4-dihydro-indeno[1,2-c]pyrazol-3-yl]-amine], the inhibition at 10 µM in assay [1] came out at 70%. Also, the IC50 in assay [1] is 16.2 nM; with T47D (breast), 10500 nM; in the assay with PC3 (prostate) (setting [2]), 6340 nM; with A375 (melanoma) (setting [3]) it was 14400 nM; in the assay with AsPC1 (pancreas) (setting [4]) it was greater than 10000 nM.

For `COC(=O)c1cccc(Nc2[nH]nc3c2Cc2cc(OCCCN4CCCC4)c(OC)cc2-3)c1` [Compound 157, 3-[7-Methoxy-6-(3-pyrrolidin-1-yl-propoxy)-2,4-dihydro-indeno[1,2-c]pyrazol-3-ylamino]-benzoic acid methyl ester], the inhibition at 10 µM in assay [1] turned out to be 85%. In addition, the IC50 in assay [1] is 7 nM; in the assay with T47D (breast) it was 1900 nM; in the assay on PC3 (prostate) (setting [2]) it was 3130 nM; in the assay with A375 (melanoma) (setting [3]), 1230 nM; in the assay with AsPC1 (pancreas) (setting [4]) it was greater than 10000 nM.

With `COc1cc2c(cc1OC)-c1n[nH]c(NCc3cc(Cl)ccc3Cl)c1C2` [Compound 330, (2,5-Dichloro-benzyl)-(6,7-dimethoxy-2,4-dihydro-indeno[1,2-c]pyrazol-3-yl)-amine], the inhibition at 10 µM in assay [1] is 100%. Also, the IC50 was 16.2 nM in assay [1]; 355 nM with T47D (breast); 303 nM with PC3 (prostate) (setting [2]); 2180 nM with A375 (melanoma) (setting [3]); 1550 nM in the assay on AsPC1 (pancreas) (setting [4]).

As to `COc1cc2c(cc1OC)-c1c(c(Nc3cccc(F)c3)nn1C(=O)CO)C2` [Compound 432, 1-[3-(3-Fluoro-phenylamino)-6,7-dimethoxy-4H-indeno[1,2-c]pyrazol-1-yl]-2-hydroxy-ethanone], the inhibition at 10 µM in assay [1] amounted to 95.5%. In addition, the IC50 in assay [1] was determined as 38 nM; with T47D (breast), 6 nM; in the assay on PC3 (prostate) (setting [2]), 12 nM; in the assay on A375 (melanoma) (setting [3]), 2 nM; in the assay with AsPC1 (pancreas) (setting [4]) it was 40 nM.
